Test [1] has as its system Human lung cancer cell line (H292). As to the kind of experiment: Inhibition of H292 cell proliferation (CellTiter luminescent viability). The format is cell-based. The note with it: 96 hours; for inhibition at 0.01 µM: H292, 10 nM, read-out: Inhibition Rate at 10 nM (%); for inhibition at 0.5 µM: H292, 500 nM, read-out: Inhibition Rate at 500 nM (%). The protocol: (§1) The tumor cells used herein were cultured in a cell culture medium listed in table 3 at 37 °C in an incubator with 5% CO2. Prior to experimentation, all cell lines used were correctly identified by STR profiling, and tested negative for mycoplasma contamination using a mycoplasma detection kit through routine screenings.
(§2) The IC50 values of the compounds of the present disclosure (including the compounds in Table 1, Table 2, and Examples 1-468) were determined using the CellTiter-Meiluncell Luminescent Cell Viability Assay Kit from Dalian Meilun Biotech Co., Ltd. The detailed procedure is as follows: Tumor cells were seeded in 96-well cell culture plates at the densities specified in Table 4. On the following day, the test compounds of the present disclosure were subjected to serial dilution. The dilution can be performed according to one of the following two methods: • (1) The first dilution method: The test compounds of the present disclosure (including the compounds in Table 1, Table 2, and Examples 1-468) were subjected to 5-fold serial dilutions starting from a highest concentration of 2000 μM, resulting in a total of 9 concentrations from high to low (2000, 400, 80, 16, 3.2, 0.64, 0.128, 0.0256, 0.00512 μM). Subsequently, 0.5 μL of the test compound dilution was transferred into the 96-well plate containing the cells, with each well containing 100 μL of cell culture medium. […] Into the 96-well plate, the diluted test compounds and corresponding detection reagents were added, resulting in final test compound concentrations of 500 nM and 10 nM, respectively. The experimental procedure is described below using the diluted 2 μM test compound as an example.
(§3) 0.5 μL of the aforementioned diluted compound of the present disclosure (including the compounds in Table 1, Table 2, and Examples 1-468) was added to the seeded cells in 100 μL of medium, yielding a final test compound concentration of 10 nM. After the cells were treated with the compounds of the present disclosure for a specified period, the cell viability assay reagent was added to the culture medium according to the kit's instructions to determine cell viability. […] All controls were treated using the same procedure as the compounds of the present disclosure. The growth inhibition curves for the compounds of the present disclosure were plotted using Prism GraphPad software, and the IC50 values were calculated therefrom.

The subject of test [2] is Human myeloid monocytic leukemia cell line (MV-4-11). As to the kind of experiment: Inhibition of MV-4-11 cell proliferation (CellTiter luminescent viability). The format is cell-based. The note with it: Homo sapiens, MV4-11, 96 hours; for inhibition at 0.01 µM: MV-4-11, 10 nM, read-out: Inhibition Rate at 10 nM (%); for inhibition at 0.5 µM: MV-4-11, 500 nM, read-out: Inhibition Rate at 500 nM (%). The method, boiled down:
(§4)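 IC50 is fitted from luminescent viability (CellTiter-Meiluncell) curves. Nine-point, 5-fold dilution series (top stock 2000 μM) are added at 0.5 μL per 100 μL medium to cells plated the day before, with growth at 37 °C and 5% CO2.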

Test [3] relates to Human diffuse large B-cell lymphoma cell line (TMD8). The experiment in a line: Inhibition of TMD8 cell proliferation (CellTiter luminescent viability). Format: cell-based. The note with it: Homo sapiens, TMD8, 96 h, Table IJ3, Tau inhibitor-based. Here is the method:
as §1, §2, §3

Test [4] addresses T1, human Cereblon WT GST-tagged protein (CRBN) (Homo sapiens, UniProt Q96SW2).
T1 construct: purchased CISBIO 64BDCRBNPEH
As to the kind of experiment: CRBN binding by HTRF (Cereblon binding kit). Here is the method: The CEREBLON BINDING kits (specification: 10,000 tests; product number: Catalog #64BDCRBNPEH; CISBIO company) was used to determine the CRBN binding ability of the compounds to be tested through a HTRF method (homogeneous time-resolved fluorescence). The specific methods are as follows: • 1. According to the instructions of the CEREBLON BINDING KITS, serial dilutions were performed for the test compounds of the present disclosure (including the compounds in Table 1, Table 2, and Examples 1-468) and for lenalidomide. Specifically, diluent #9 (1×) solution was used as the diluent, and multiple concentration gradients were set. The dilution operation can be performed according to one of the following two methods: • (1) The first dilution method: The test compounds of the present disclosure (including the compounds in Table 1, Table 2, and Examples 1-468) were subjected to 5-fold serial dilutions starting from a highest concentration of 40 μM, resulting in a total of 7 concentrations from high to low (40, 8, 1.6, 0.32, 0.064, 0.0128, 0.00256 μM). Subsequently, the diluted test compounds and corresponding detection reagents were added to each well of a 96-well plate, resulting in final test compound concentrations of 10, 2, 0.4, 0.08, 0.016, 0.0032, and 0.00064 μM, respectively. • (2) As an alternative, a second dilution method can be used: The test compounds of the present disclosure (including the compounds in Table 1, Table 2, and Examples 1-468) were subjected to 4-fold gradient dilutions starting from a highest concentration of 8 μM, resulting in 2 concentrations (8 μM, 2 μM). Into the 96-well plate, the diluted test compounds and corresponding detection reagents were added, resulting in final test compound concentrations of 2 μM and 0.5 μM, respectively. The experimental procedure is described below using the diluted 8 μM test compound and lenalidomide solutions as examples. • 2. 2.5 μL of the above 8 μM of the tested compounds and lenalidomide solution, as well as the same volume of diluent #9 (1×) solution (solvent control group, Std0) were added to each well of a 96-well plate, respectively. Then, 2.5 μL of human Cereblon WT GST-tagged protein solution was added to each well. Finally, 5 μL of the thoroughly mixed Thalidomide-Re reagent and GST Eu antibody working solution were added to each of the aforementioned wells. The final concentration of the tested compounds and lenalidomide in each well was 2 μM. • 3. The blank control wells were sequentially added with 2.5 μL of diluent #9 (1×) solution, 2.5 μL of PROTAC binding buffer, and 5 μL of thoroughly mixed Thalidomide-Re reagent and GST Eu antibody working solution. • 4. After sealing and incubating the solutions in the aforementioned wells at room temperature for 3 hours, the absorbance values at emission wavelengths of 620 nm and 665 nm were detected by the HTRF method using a Spark microplate reader (V3.1 SP1).
The corresponding CRBN binding inhibition rate was calculated using the following method:
Rcompound=OD 665 nmcompound/OD 620 nmcompound−OD 665 nmcontrol/OD 620 nmcontrol
RStd0=OD 665 nmStd0/OD 620 nmStd0−OD 665 nmcontrol/OD 620 nmcontrol inhibition rate (%)=(1−Rcompound/RStd0)*100
Note: OD 665 nmcompound is the absorbance value of each well of the compounds to be tested of the present disclosure at an emission wavelength of 665 nm. OD 620 nmcompound is the absorbance value of each well of the compounds to be tested of the present disclosure at an emission wavelength of 620 nm. OD 665 nmcontrol is the absorbance value of the blank control well at an emission wavelength of 665 nm. OD 620 nmcontrol is the absorbance value of the blank control well at an emission wavelength of 620 nm. OD 665 nmStd0 is the absorbance value of the solvent control well at an emission wavelength of 665 nm. OD 620 nmStd0 is the absorbance value of the solvent control well at an emission wavelength of 620 nm.
In general terms: TR-FRET usually uses a lanthanide donor and a delayed reading to cut background.

The subject of test [5] is Human Multiple myeloma cell line (MM.1S). The experiment in a line: Inhibition of MM.1S cell proliferation (CellTiter luminescent viability). Format: cell-based. As to conditions: Homo sapiens, MM1.S, Table IJ1, Tau inhibitor-based, 96 hours. The method, boiled down:
as §4

The mark [6] stands for this setting: NCI-H292, Table IM1, CDK9 inhibitor-based.
Setting [7] is: Table IE3, CDK4/6 inhibitor-based.
The mark [8] stands for this setting: NCI-H292, Table IE2, CDK4/6 inhibitor-based.

Read-outs that look alike come from different tables or passages of the source.

T1 sequence (Q96SW2 whole entry): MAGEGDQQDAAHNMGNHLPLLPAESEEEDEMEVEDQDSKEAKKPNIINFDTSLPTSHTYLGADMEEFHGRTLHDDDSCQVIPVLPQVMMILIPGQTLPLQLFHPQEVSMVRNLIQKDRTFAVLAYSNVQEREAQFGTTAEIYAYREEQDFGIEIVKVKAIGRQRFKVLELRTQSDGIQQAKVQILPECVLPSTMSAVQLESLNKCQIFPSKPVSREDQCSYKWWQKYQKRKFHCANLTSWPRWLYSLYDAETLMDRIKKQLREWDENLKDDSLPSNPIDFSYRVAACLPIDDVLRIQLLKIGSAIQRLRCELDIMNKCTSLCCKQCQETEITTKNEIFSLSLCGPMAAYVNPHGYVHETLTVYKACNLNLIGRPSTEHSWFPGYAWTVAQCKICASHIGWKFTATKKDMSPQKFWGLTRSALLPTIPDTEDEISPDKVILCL

With `Cn1ncc(-c2nc(NC3CCN(CC4CCN(c5ccc6c(c5)C(=O)N(N5CCC(=O)NC5=O)C6=O)CC4)CC3)ncc2Cl)c1CC1CC1` [GT-08346, 5-(4-((4-((5-chloro-4-(5-(cyclopropylmethyl)-1-methyl-1H-pyrazol-4-yl)pyrimidin-2-yl)amino)piperidin-1-yl)methyl)piperidin-1-yl)-2-(2,4-dioxotetrahydropyrimidin-1(2H)-yl)isoindoline-1,3-dione], in test [1] (setting [6]), the inhibition at 0.01 µM lay in the range of 0 to 5% and the inhibition at 0.5 µM fell in the range of 50 to 60%.

Regarding `Cn1c2ccncc2c2ccc(-c3cnc(N4CCN(Cc5ccc6c(c5)CN(N5CCC(=O)NC5=O)C6=O)CC4)c(C(F)(F)F)c3)cc21` [GT-08539, 1-(5-((4-(5-(5-methyl-5H-pyrido[4,3-b]indol-7-yl)-3-(trifluoromethyl)pyridin-2-yl)piperazin-1-yl)methyl)-1-oxoisoindolin-2-yl)dihydropyrimidine-2,4 (1H,3H)-dione], the inhibition at 0.01 µM in test [2] (Table IJ2, Tau inhibitor-based) lay within 30 to 40%; in test [3] (TMD8, 10 nM, read-out: Inhibition Rate at 10 nM (%)), 20 to 30%; in test [5] (10 nM, read-out: Inhibition Rate at 10 nM (%)), 20 to 30%. Moreover, the inhibition at 0.5 µM in test [2] (Table IJ2, Tau inhibitor-based) fell in the range of 50 to 60%; in test [3] (TMD8, 500 nM, read-out: Inhibition Rate at 500 nM (%)) it was 60 to 70%; in test [4] (0.5 μM, read-out: Inhibition Rate at 0.5 μM (%)) it was 20 to 30%; in test [5] (500 nM, read-out: Inhibition Rate at 500 nM (%)), 60 to 70%. Besides, the inhibition at 2 µM in test [4] (2 μM, read-out: Inhibition Rate at 2 μM (%)) is 60 to 80%.

For `N#CC1(CNc2cccc(-c3cc(NC4CCN(CC5CCN(c6cccc7c6C(=O)N(N6CCC(=O)NC6=O)C7=O)CC5)CC4)ncc3Cl)n2)CCOCC1` [GT-08349, 4-(((5′-chloro-2′-((1-((1-(2-(2,4-dioxotetrahydropyrimidin-1(2H)-yl)-1,3-dioxoisoindolin-4-yl)piperidin-4-yl)methyl)piperidin-4-yl)amino)-[2,4′-bipyridin]-6-yl)amino)methyl)tetrahydro-2H-pyran-4-carbonitrile], in test [1] (setting [6]), the inhibition at 0.01 µM lay within 15 to 20% and the inhibition at 0.5 µM was 20 to 30%.

With `CN(C)C(=O)c1cc2cnc(Nc3ccc(N4CCN(Cc5ccc6c(c5)CN(N5CCC(=O)NC5=O)C6=O)CC4)cn3)nc2n1C1CCCC1` [GT-06335, 7-cyclopentyl-2-((5-(4-((2-(2,4-dioxotetrahydropyrimidin-1(2H)-yl)-1-oxoisoindolin-5-yl)methyl)piperazin-1-yl)pyridin-2-yl)amino)-N,N-dimethyl-7H-pyrrolo[2,3-d]pyrimidine-6-carboxamide], in test [2] (setting [7]), the inhibition at 0.01 µM was in the range of 10 to 15% and the inhibition at 0.5 µM lay within 40 to 60%. In addition, in test [1] (setting [8]), the inhibition at 0.01 µM fell in the range of 35 to 40% and the inhibition at 0.5 µM was in the range of 30 to 35%.

On to `CN(C)C(=O)c1cc2cnc(Nc3ccc(N4CCC(CN5CCN(c6cccc7c6C(=O)N(N6CCC(=O)NC6=O)C7=O)CC5)CC4)cn3)nc2n1C1CCCC1` [GT-05202, 7-cyclopentyl-2-((5-(4-((4-(2-(2,4-dioxotetrahydropyrimidin-1(2H)-yl)-1,3-dioxoisoindolin-4-yl)piperazin-1-yl)methyl)piperidin-1-yl)pyridin-2-yl)amino)-N,N-dimethyl-7H-pyrrolo[2,3-d]pyrimidine-6-carboxamide], for which, in test [2] (setting [7]), the inhibition at 0.01 µM is 15 to 20% and the inhibition at 0.5 µM fell in the range of 40 to 60%. Besides, in test [1] (setting [8]), the inhibition at 0.01 µM fell in the range of 35 to 40% and the inhibition at 0.5 µM lay in the range of 35 to 40%.

`N#CC1(CNc2cccc(-c3cc(NC4CCN(CC5CCN(c6ccc7c(c6)C(=O)N(N6CCC(=O)NC6=O)C7=O)CC5)CC4)ncc3Cl)n2)CCOCC1` [GT-08348, 4-(((5′-chloro-2′-((1-((1-(2-(2,4-dioxotetrahydropyrimidin-1(2H)-yl)-1,3-dioxoisoindolin-5-yl)piperidin-4-yl)methyl)piperidin-4-yl)amino)-[2,4′-bipyridin]-6-yl)amino)methyl)tetrahydro-2H-pyran-4-carbonitrile]: in test [1] (setting [6]), the inhibition at 0.01 µM is -5 to 0% and the inhibition at 0.5 µM was 30 to 40%.

One may read the inhibition as the change of the read-out against control, counted positive when it falls.

The record behind these values is patent publication US20260364184A1, “COMPOUND BASED ON OXOISOINDOLINYL-SUBSTITUTED TETRAHYDROPYRIMIDINE-DIONE AND USE THEREOF” (GLUETACS THERAPEUTICS (SHANGHAI) CO., LTD., priority 2023, published 2026).
